Among the data in US10533000B2, “Metabotrophic glutamate receptor 5 modulators and methods of use thereof” (Sunovion Pharmaceuticals, Inc., priority 2011, dated 2020) are EC50 values, retold here.

Chain of mGluR5 (P41594 21-1212): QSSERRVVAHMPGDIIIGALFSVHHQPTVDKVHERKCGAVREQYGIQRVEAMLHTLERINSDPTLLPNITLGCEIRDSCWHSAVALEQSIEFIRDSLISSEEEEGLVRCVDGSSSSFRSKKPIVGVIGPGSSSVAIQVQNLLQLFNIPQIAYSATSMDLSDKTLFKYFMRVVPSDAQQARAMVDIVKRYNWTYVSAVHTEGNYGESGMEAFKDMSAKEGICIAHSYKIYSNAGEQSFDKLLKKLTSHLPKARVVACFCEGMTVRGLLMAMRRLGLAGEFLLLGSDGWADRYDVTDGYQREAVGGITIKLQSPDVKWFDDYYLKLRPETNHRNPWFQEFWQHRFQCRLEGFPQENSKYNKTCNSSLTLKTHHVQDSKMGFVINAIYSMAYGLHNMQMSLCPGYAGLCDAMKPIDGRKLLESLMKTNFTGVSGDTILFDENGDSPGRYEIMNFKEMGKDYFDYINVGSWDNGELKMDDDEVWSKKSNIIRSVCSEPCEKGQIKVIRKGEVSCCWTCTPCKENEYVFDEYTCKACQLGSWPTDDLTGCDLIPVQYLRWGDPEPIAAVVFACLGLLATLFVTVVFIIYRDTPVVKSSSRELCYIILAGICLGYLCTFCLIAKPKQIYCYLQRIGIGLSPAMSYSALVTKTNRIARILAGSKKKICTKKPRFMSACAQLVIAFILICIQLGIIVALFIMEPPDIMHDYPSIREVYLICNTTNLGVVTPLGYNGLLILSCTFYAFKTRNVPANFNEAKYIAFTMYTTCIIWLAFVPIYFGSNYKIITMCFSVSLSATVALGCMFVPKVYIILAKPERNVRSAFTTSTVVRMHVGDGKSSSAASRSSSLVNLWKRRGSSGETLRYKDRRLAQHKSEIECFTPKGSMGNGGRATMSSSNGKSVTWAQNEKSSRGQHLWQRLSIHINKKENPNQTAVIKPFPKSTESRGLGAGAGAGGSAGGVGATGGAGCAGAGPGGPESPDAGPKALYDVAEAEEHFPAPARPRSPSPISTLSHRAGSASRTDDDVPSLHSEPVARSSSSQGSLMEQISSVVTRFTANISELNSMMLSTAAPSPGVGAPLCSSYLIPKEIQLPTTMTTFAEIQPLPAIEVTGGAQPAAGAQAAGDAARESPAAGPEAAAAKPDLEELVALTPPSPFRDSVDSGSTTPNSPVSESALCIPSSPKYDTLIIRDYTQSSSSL

This experiment addresses mGluR5 (Homo sapiens, UniProt P41594). Nature of the experiment: mGluR5 positive allosteric modulator (PAM) functional assay. The class given is cell-based.
In general, EC50 refers to the concentration giving half of the maximal effect. High values mean lower potency in that assay, low ones higher potency in that assay. In turn, `Fc1cccc(C#Cc2ccc(-c3noc(C4CCCN4CCC(F)(F)F)n3)nc2)c1` (centres unmarked) [Compound 123, 3-(5-((3-fluorophenyl)ethynyl)pyridin-2-yl)-5-(1-(3,3,3-trifluoropropyl)pyrrolidin-2-yl)-1,2,4-oxadiazole] had an EC50 of at most 30 nM.

The compound `COC(C)c1nc(-c2ccc(C#Cc3cccc(F)c3)nc2)no1` (centres unmarked) [Compound 84, 3-(6-((3-fluorophenyl)ethynyl)pyridin-3-yl)-5-(1-methoxyethyl)-1,2,4-oxadiazole] registered an EC50 of 30 to 100 nM.

The compound `CCOC(=O)NC(CC)c1nc(-c2ccc(C#Cc3ccccn3)cn2)no1` (centres unmarked) [Compound 146, ethyl (1-(3-(5-(pyridin-2-ylethynyl)pyridin-2-yl)-1,2,4-oxadiazol-5-yl)propyl)carbamate] came in with an EC50 of 100 to 300 nM.

As for `Fc1cccc(C#Cc2ccc(-c3noc(C4CCCC4)n3)nc2)c1` [Compound 95, 5-cyclopentyl-3-(5-((3-fluorophenyl)ethynyl)pyridin-2-yl)-1,2,4-oxadiazole], the EC50 is at most 30 nM.

Compound `CC(c1nc(-c2ccc(C#Cc3ccccn3)cn2)no1)N(C)C` (centres unmarked) [Compound 143, N,N-dimethyl-1-(3-(5-(pyridin-2-ylethynyl)pyridin-2-yl)-1,2,4-oxadiazol-5-yl)ethanamine] had an EC50 of 100 to 300 nM.

In turn, `CC(C)(C)c1nc(-c2ccc(C#Cc3ccc(F)cc3)cc2)no1` [Compound 66, 5-(tert-butyl)-3-(4-((4-fluorophenyl)ethynyl)phenyl)-1,2,4-oxadiazole] had an EC50 of 100 to 300 nM.

Turning to `CN1CCCC1c1nc(-c2ccc(C#Cc3ccncc3)cc2)no1` (centres unmarked) [Compound 78, 5-(1-methylpyrrolidin-2-yl)-3-(4-(pyridin-4-ylethynyl)phenyl)-1,2,4-oxadiazole], the EC50 is at most 30 nM.

`CN(C)C1(c2nc(-c3ccc(C#Cc4cccc(F)c4)cn3)no2)CC1` [Compound 118, 1-(3-(5-((3-fluorophenyl)ethynyl)pyridin-2-yl)-1,2,4-oxadiazol-5-yl)-N,N-dimethylcyclopropanamine] had an EC50 of at most 30 nM.

With `CCC(C)c1nc(-c2ccc(C#Cc3ccncc3)nc2)no1` (centres unmarked) [Compound 90, 5-(sec-butyl)-3-(6-(pyridin-4-ylethynyl)pyridin-3-yl)-1,2,4-oxadiazole], the EC50 was at most 30 nM.

Consider `CNC(C)(C)c1nc(-c2ccc(C#Cc3cccc(F)c3)cn2)no1` [Compound 112, 2-(3-(5-((3-fluorophenyl)ethynyl)pyridin-2-yl)-1,2,4-oxadiazol-5-yl)-N-methylpropan-2-amine], for which the EC50 is at most 30 nM.

Take `CNC(C)c1nc(-c2ccc(C#Cc3ccncc3)cc2)no1` (centres unmarked) [Compound 79, N-methyl-1-(3-(4-(pyridin-4-ylethynyl)phenyl)-1,2,4-oxadiazol-5-yl)ethanamine]: the EC50 is 100 to 300 nM.

In turn, `CCC(C)c1nc(-c2ccc(C#Cc3ccncc3)cc2)no1` (centres unmarked) [Compound 71, 5-(sec-butyl)-3-(4-(pyridin-4-ylethynyl)phenyl)-1,2,4-oxadiazole] yielded an EC50 of 100 to 300 nM.

`Clc1cccc(C#Cc2ccc(-c3noc(C4CCCN4)n3)nc2)c1` (centres unmarked) [Compound 166, 3-(5-((3-chlorophenyl)ethynyl)pyridin-2-yl)-5-(pyrrolidin-2-yl)-1,2,4-oxadiazole] gave an EC50 of 300 to 1000 nM.

`CN(C)C(C)(C)c1nc(-c2ccc(C#Cc3ccccn3)cn2)no1` [Compound 145, N,N-dimethyl-2-(3-(5-(pyridin-2-ylethynyl)pyridin-2-yl)-1,2,4-oxadiazol-5-yl)propan-2-amine] registered an EC50 of 30 to 100 nM.

`CCC(C)c1nc(-c2ccc(C#Cc3cccc(F)c3)cn2)no1` (centres unmarked) [Compound 94, 5-(sec-butyl)-3-(5-((3-fluorophenyl)ethynyl)pyridin-2-yl)-1,2,4-oxadiazole] gave an EC50 of at most 30 nM.

`CN1C(c2nc(-c3ccc(C#Cc4ccccn4)cn3)no2)CCC1(C)C` (centres unmarked) [Compound 153, 3-(5-(pyridin-2-ylethynyl)pyridin-2-yl)-5-(1,5,5-trimethylpyrrolidin-2-yl)-1,2,4-oxadiazole] came in with an EC50 of 30 to 100 nM.

The compound `COC(C)c1nc(-c2ccc(C#Cc3ccncc3)cn2)no1` (centres unmarked) [Compound 159, 5-(1-methoxyethyl)-3-(5-(pyridin-4-ylethynyl)pyridin-2-yl)-1.2.4-oxadiazole] showed an EC50 of 100 to 300 nM.

For the compound `CN(C)C(C)(C)c1nc(-c2ccc(C#Cc3cccc(F)c3)cn2)no1` [Compound 113, 2-(3-(5-((3-fluorophenyl)ethynyl)pyridin-2-yl)-1,2,4-oxadiazol-5-yl)-N,N-dimethylpropan-2-amine], the EC50 is at most 30 nM.

Take `CC(c1nc(-c2ccc(C#Cc3cccc(F)c3)cc2)no1)N1CCCC1` (centres unmarked) [Compound 53, 3-(4-((3-fluorophenyl)ethynyl)phenyl)-5-(1-(pyrrolidin-1-yl)ethyl)-1,2,4-oxadiazole]: the EC50 fell in the range of 300 to 1000 nM.

As for `CCC(OC)c1nc(-c2ccc(C#Cc3cccc(F)c3)nc2)no1` (centres unmarked) [Compound 85, 3-(6-((3-fluorophenyl)ethynyl)pyridin-3-yl)-5-(1-methoxypropyl)-1,2,4-oxadiazole], the EC50 is at most 30 nM.

On to `CCC(NC)c1nc(-c2ccc(C#Cc3cccc(F)c3)cn2)no1` (centres unmarked) [Compound 115, 1-(3-(5-((3-fluorophenyl)ethynyl)pyridin-2-yl)-1,2,4-oxadiazol-5-yl)-N-methylpropan-1-amine], for which the EC50 fell in the range of 30 to 100 nM.

Compound `CCC(CC)c1nc(-c2ccc(C#Cc3ccccn3)cn2)no1` [Compound 136, 5-(pentan-3-yl)-3-(5-(pyridin-2-ylethynyl)pyridin-2-yl)-1,2,4-oxadiazole] had an EC50 of at most 30 nM.

The compound `CN1C[C@H](O)C[C@H]1c1nc(-c2ccc(C#Cc3cccc(F)c3)cn2)no1` [Compound 130, (3R,5S)-5-(3-(5-((3-fluorophenyl)ethynyl)pyridin-2-yl)-1,2,4-oxadiazol-5-yl)-1-methylpyrrolidin-3-ol] displayed an EC50 of 30 to 100 nM.

Regarding `COCCc1nc(-c2ccc(C#Cc3cccc(F)c3)cc2)no1` [Compound 40, 3-(4-((3-fluorophenyl)ethynyl)phenyl)-5-(2-methoxyethyl)-1,2,4-oxadiazole], the EC50 was 300 to 1000 nM.

For the compound `CCC(CC)c1nc(-c2ccc(C#Cc3ccncc3)cc2)no1` [Compound 75, 5-(pentan-3-yl)-3-(4-(pyridin-4-ylethynyl)phenyl)-1,2,4-oxadiazole], the EC50 lay within 30 to 100 nM.

`CC(c1nnc(-c2ccc(C#Cc3ccccn3)cn2)n1C)N1CCCC1` (centres unmarked) [Compound 10, 2-(4-methyl-5-(1-(pyrrolidin-1-yl)ethyl)-4H-1,2,4-triazol-3-yl)-5-(pyridin-2-ylethynyl)pyridine] registered an EC50 of 100 to 300 nM.

For `CN1CC(F)(F)C[C@@H]1c1nc(-c2ccc(C#Cc3ccccn3)cn2)no1` [Compound 154, (R)-5-(4,4-difluoro-1-methylpyrrolidin-2-yl)-3-(5-(pyridin-2-ylethynyl)pyridin-2-yl)-1,2,4-oxadiazole], the EC50 was 300 to 1000 nM.

In the case of `CN1CCCC1c1nc(-c2ccc(C#Cc3cccc(F)c3)cc2)no1` (centres unmarked) [Compound 47, 3-(4-((3-fluorophenyl)ethynyl)phenyl)-5-(1-methylpyrrolidin-2-yl)-1,2,4-oxadiazole], the EC50 fell in the range of 100 to 300 nM.

`COC(C)c1nc(-c2ccc(C#Cc3cccc(F)c3)cc2)no1` (centres unmarked) [Compound 58, 3-(4-((3-fluorophenyl)ethynyl)phenyl)-5-(1-methoxyethyl)-1,2,4-oxadiazole] yielded an EC50 of 100 to 300 nM.

`CCC(N)c1nc(-c2ccc(C#Cc3cccc(F)c3)cn2)no1` (centres unmarked) [Compound 114, 1-(3-(5-((3-fluorophenyl)ethynyl)pyridin-2-yl)-1,2,4-oxadiazol-5-yl)propan-1-amine]: the EC50 fell in the range of 100 to 300 nM.

`CCC(OC)c1nc(-c2ccc(C#Cc3cccc(F)c3)cc2)no1` (centres unmarked) [Compound 44, 3-(4-((3-fluorophenyl)ethynyl)phenyl)-5-(1-methoxypropyl)-1,2,4-oxadiazole]: the EC50 lay within 100 to 300 nM.

On to `COC(C)c1nc(-c2ccc(C#Cc3ccncc3)cc2)no1` (centres unmarked) [Compound 74, 5-(1-methoxyethyl)-3-(4-(pyridin-4-ylethynyl)phenyl)-1,2,4-oxadiazole], for which the EC50 was at most 30 nM.

Compound `CC(C)(C)c1nc(-c2ccc(C#Cc3cccc(F)c3)cc2)no1` [Compound 27, 5-(tert-butyl)-3-(4-((3-fluorophenyl)ethynyl)phenyl)-1,2,4-oxadiazole] showed an EC50 of 100 to 300 nM.

In turn, `CCC(C)c1nc(-c2ccc(C#Cc3ccncc3)cn2)no1` (centres unmarked) [Compound 158, 5-(sec-butyl)-3-(5-(pyridin-4-ylethynyl)pyridin-2-yl)-1,2,4-oxadiazole] displayed an EC50 of at most 30 nM.

Compound `CN1CCCC1(C)c1nc(-c2ccc(C#Cc3cccc(F)c3)cn2)no1` (centres unmarked) [Compound 51, 5-(1,2-dimethylpyrrolidin-2-yl)-3-(5-((3-fluorophenyl)ethynyl)pyridin-2-yl)-1,2,4-oxadiazole] gave an EC50 of at most 30 nM.

Turning to `C=C1CN[C@H](c2nc(-c3ccc(C#Cc4cccc(F)c4)cn3)no2)C1` [Compound 127, (S)-3-(5-((3-fluorophenyl)ethynyl)pyridin-2-yl)-5-(4-methylenepyrrolidin-2-yl)-1,2,4-oxadiazole], the EC50 was in the range of 100 to 300 nM.

For the compound `CC(C)NC(C)c1nc(-c2ccc(C#Cc3ccccn3)cn2)no1` (centres unmarked) [Compound 140, N-(1-(3-(5-(pyridin-2-ylethynyl)pyridin-2-yl)-1,2,4-oxadiazol-5-yl)ethyl)propan-2-amine], the EC50 was in the range of 100 to 300 nM.

Compound `CN1CCC1c1nc(-c2ccc(C#Cc3cccc(F)c3)cn2)no1` (centres unmarked) [Compound 101, 3-(5-((3-fluorophenyl)ethynyl)pyridin-2-yl)-5-(1-methylazetidin-2-yl)-1,2,4-oxadiazole] yielded an EC50 of 30 to 100 nM.

On to `C(#Cc1ccccn1)c1ccc(-c2noc(C3CC4CCN3C4)n2)nc1` (centres unmarked) [Compound 174, 5-(1-azabicyclo[2.2.1]heptan-2-yl)-3-(5-(pyridin-2-ylethynyl)pyridin-2-yl)-1,2,4-oxadiazole], for which the EC50 fell in the range of 100 to 300 nM.

As to `CCC(CC)c1nc(-c2ccc(C#Cc3cccc(F)c3)cc2)no1` [Compound 34, 3-(4-((3-fluorophenyl)ethynyl)phenyl)-5-(pentan-3-yl)-1,2,4-oxadiazole], the EC50 lay in the range of 100 to 300 nM.

In turn, `CN1CCCC1c1nc(-c2ccc(C#Cc3ccccn3)cc2)no1` (centres unmarked) [Compound 70, 5-(1-methylpyrrolidin-2-yl)-3-(4-(pyridin-2-ylethynyl)phenyl)-1,2,4-oxadiazole] returned a concentration giving a half-maximal response (EC50) of at most 30 nM.
